Test results as given in article PMC12621189, “Optimization of Selective and CNS Penetrant Alkyne-Based TREK Inhibitors: The Discovery and Characterization of ONO-9517601 (VU6022856) and ONO-7927846 (VU6024391)” (Journal of Medicinal Chemistry, 2025).
“And” between values parts separate entries of the source, which are not always exact repeats. Equal values may be shown once.

Key:
rat TREK-1 = molecular target: T1, rat TREK-1 (Rattus norvegicus, UniProt Q920B6); assay: rat TREK-1 thallium flux; type: cell-based; conditions: read-out: TREK-1 IC50 (rat, Tl+)
T1 sequence (Q920B6 1-426): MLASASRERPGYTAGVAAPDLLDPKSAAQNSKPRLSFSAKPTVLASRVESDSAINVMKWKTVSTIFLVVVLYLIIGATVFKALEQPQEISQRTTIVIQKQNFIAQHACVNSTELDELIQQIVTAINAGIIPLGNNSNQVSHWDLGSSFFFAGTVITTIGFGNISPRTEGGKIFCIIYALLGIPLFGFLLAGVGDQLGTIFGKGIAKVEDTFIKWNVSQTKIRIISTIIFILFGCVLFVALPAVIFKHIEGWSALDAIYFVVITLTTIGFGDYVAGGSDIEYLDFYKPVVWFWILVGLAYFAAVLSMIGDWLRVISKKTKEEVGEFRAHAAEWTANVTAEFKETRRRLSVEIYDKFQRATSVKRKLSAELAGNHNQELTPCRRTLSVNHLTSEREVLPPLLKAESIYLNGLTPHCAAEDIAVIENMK

[1] = Brain homogenate binding, mouse; type: in vitro ADME; conditions: bound
Experimental: (§1) concentration), which was aliquoted in triplicate to the ‘bottom half’ of the prepared HTD plate wells. The HTD plate was sealed and incubated for 6 hours at 37 °C. Following incubation, each well (both top and bottom halves) were transferred (20 µL) to the corresponding wells of a 96-shallow-well (V-bottom) plate. The daughter plates were then matrix-matched (DPBS side wells received equal volume of plasma, and plasma side wells received equal volume of DPBS), and extraction solution (120 µL; acetonitrile containing 50 nM carbamazepine as IS) was added to all wells of both daughter plates to precipitate protein and extract test article. […]
(§2) The unbound fraction (f u) was calculated following the equation below, and mean values for each species were calculated from 3 replicates.
(§3) A similar approach was used to determine the degree of brain homogenate binding, which employed the same methodology and procedure with the following modifications: 1) a final compound concentration of 1 μM was used, 2) naïve rat brains were homogenized in DPBS (1:3 composition of brain: DPBS, w/w) using a Mini-Bead Beater™ machine in order to obtain brain homogenate, which was then treated in the same manner as the plasma samples in the previously described plasma protein binding assay. Fraction unbound for both plasma and brain samples was determined using Equation 4. […]

[2] = Brain homogenate binding, rat; type: in vitro ADME; conditions: bound
Experimental: as §1, §2, §3

MK-801 challenged rat = assay: MK-801 challenge novel object recognition (NOR), rat; type: in vivo; conditions: for Minimum effective dose (MED), MK-801 challenge NOR: PO, MK-801 0.2 mg/kg IP; for reversal of the MK-801 deficit in NOR: oral, 10 at 1, 3 mg/kg, 11 at 0.3, 1 mg/kg
Kir2.1 = Kir2.1 (Homo sapiens, UniProt P63252); assay: MPC ion channel panel, Kir2.1; type: cell-based
Chain of Kir2.1 (P63252 whole entry): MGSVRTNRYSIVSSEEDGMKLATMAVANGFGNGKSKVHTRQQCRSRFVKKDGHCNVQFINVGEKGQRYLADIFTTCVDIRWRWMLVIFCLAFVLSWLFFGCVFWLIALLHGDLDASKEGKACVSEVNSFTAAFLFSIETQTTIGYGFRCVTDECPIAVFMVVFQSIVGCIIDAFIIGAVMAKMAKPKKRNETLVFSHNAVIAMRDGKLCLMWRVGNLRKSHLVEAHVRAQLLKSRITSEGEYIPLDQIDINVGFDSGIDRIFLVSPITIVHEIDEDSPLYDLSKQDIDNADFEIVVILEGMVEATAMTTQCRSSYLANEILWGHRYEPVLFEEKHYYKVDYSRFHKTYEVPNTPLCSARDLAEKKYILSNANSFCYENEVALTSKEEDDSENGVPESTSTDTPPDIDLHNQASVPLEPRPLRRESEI

mouse TREK-1 = mouse TREK-1 (Mus musculus, UniProt P97438); assay: mouse TREK-1 thallium flux; type: cell-based; conditions: read-out: TREK-1 IC50 (mouse, Tl+)
Chain of mouse TREK-1 (P97438 whole entry): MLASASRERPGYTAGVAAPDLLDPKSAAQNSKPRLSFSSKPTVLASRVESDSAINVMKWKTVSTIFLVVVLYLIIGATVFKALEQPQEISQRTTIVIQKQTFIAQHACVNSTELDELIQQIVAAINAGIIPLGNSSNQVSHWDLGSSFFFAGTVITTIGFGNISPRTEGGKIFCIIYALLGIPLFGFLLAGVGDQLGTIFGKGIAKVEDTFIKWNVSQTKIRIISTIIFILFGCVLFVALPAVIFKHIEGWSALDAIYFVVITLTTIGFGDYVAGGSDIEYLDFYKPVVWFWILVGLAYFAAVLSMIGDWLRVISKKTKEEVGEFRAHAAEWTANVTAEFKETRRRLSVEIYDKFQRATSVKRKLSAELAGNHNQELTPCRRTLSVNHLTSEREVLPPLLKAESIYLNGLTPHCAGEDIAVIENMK

A3 = A3 (Homo sapiens, UniProt P0DMS8); assay: Functional assay, adenosine A3; type: biochemical
Chain of A3 (P0DMS8 whole entry): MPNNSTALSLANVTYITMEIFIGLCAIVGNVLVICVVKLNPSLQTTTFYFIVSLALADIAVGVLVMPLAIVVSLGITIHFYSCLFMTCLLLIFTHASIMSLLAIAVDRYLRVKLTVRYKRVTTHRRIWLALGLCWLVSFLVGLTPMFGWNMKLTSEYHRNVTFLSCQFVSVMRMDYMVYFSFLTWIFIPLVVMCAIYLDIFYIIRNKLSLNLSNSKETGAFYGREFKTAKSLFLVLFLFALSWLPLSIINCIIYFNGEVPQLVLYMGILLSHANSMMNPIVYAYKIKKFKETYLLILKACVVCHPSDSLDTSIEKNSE

human TREK-2 (hTREK-2) = molecular target: T2, human TREK-2 (hTREK-2) (Homo sapiens, UniProt P57789); assay: TREK-2 thallium flux assay (HEK293 cells stably expressing hTREK-2); type: cell-based; conditions: human TREK-2, thallium flux; read-out: h TREK-2 Tl+ IC50
T2 construct: expressed in transfected cells
T2 sequence (P57789 1-538): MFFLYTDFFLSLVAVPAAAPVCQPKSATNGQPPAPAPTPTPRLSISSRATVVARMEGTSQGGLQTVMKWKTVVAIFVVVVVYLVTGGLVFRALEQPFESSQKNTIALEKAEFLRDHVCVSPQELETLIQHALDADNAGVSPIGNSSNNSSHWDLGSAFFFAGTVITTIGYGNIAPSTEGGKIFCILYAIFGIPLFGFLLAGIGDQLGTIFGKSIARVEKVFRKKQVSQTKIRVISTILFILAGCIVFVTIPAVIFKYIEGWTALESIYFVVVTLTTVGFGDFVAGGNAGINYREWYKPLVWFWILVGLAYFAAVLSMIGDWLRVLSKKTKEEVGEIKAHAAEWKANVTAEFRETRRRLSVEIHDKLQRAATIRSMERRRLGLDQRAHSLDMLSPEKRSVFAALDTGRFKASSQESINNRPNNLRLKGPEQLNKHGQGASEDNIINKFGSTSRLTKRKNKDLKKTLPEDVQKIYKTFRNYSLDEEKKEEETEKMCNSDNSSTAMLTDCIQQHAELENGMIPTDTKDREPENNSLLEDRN
Experimental: 0.3% DMSO - ΔRatio of 10 μM control compound)}x100
% inhibition vs compound concentration were plotted in XLfit and calculated IC50.
TREK-2 Thallium flux assay
HEK293 cells stably expressing human TREK-2 (hTREK-2) are plated in 384-well plates, cultured overnight, loaded with Thallos dye the following day. Test compounds or control compound (tert-butyl (3-((4-(benzyloxy)-2-methylphenyl)carbamoyl)-4-chlorophenyl)carbamate) or 0.3% DMSO (vehicle control) which are prepared on separate plates are added to the cell plates and incubated for 10 min, and then the cells were treated with thallium stimulus buffer to initiate […]
To measure the efficacy and potency of test compounds, the change in fluorescence intensity (ΔRatio) and % inhibition are calculated using the following equations: […]

CYP 1A2 = CYP 1A2 (Homo sapiens, UniProt P05177); assay: CYP450 inhibition 1A2; type: in vitro ADME
Chain of CYP 1A2 (P05177 whole entry): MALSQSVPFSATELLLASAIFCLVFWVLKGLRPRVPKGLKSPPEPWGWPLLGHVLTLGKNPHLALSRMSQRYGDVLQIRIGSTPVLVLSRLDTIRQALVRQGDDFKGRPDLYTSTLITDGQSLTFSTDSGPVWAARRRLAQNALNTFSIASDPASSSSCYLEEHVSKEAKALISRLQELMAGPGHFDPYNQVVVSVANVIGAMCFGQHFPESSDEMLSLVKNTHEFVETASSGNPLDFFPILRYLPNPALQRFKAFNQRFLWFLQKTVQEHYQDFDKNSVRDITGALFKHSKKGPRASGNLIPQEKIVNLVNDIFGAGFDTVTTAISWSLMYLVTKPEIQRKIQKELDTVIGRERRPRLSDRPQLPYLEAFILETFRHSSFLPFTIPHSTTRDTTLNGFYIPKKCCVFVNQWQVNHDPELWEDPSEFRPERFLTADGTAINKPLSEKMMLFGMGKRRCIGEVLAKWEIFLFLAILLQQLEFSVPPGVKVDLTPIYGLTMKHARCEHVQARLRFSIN

Kv1.5 = Kv1.5 (Homo sapiens, UniProt P22460); assay: MPC ion channel panel, Kv1.5; type: cell-based
Chain of Kv1.5 (P22460 whole entry): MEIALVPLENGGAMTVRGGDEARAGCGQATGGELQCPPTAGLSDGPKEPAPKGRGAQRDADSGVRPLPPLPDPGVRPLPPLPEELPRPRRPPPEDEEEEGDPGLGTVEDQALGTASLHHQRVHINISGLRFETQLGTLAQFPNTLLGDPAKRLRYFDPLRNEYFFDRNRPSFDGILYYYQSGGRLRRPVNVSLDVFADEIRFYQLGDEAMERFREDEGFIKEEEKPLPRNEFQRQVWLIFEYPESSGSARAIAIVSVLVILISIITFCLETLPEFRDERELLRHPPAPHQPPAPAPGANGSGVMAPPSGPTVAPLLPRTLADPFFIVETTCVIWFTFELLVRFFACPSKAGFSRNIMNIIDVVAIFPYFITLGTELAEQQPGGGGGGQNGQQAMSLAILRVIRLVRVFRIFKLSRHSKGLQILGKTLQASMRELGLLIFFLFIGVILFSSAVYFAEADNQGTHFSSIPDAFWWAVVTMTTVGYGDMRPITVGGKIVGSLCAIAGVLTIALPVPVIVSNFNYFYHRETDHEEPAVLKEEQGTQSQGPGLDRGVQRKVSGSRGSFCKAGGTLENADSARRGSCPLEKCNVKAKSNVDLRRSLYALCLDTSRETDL

CC(=O)N1CCC(n2ncc(Cl)c2C(=O)Nc2ncc(C#Cc3ccccc3)cc2C)CC1 [Compound 10, 1-(1-Acetylpiperidin-4-yl)-4-chloro-N-(3-methyl-5-(phenylethynyl)pyridin-2-yl)-1H-pyrazole-5-carboxamide]
IC50 (rat TREK-1): 0.28 µM | BHB mouse [1]: 99.5% and 99.5, 99.5% | BHB rat [2]: 99.5% and 99.5, 99.5% | Minimum effective dose (MED), MK-801 challenge NOR (MK-801 challenged rat): 1 mg/kg | reversal of the MK-801 deficit in NOR (MK-801 challenged rat): significantly reversed the MK-801 deficit | inhibition at 10 µM (Kir2.1): ≤ 50% | IC50 (mouse TREK-1): 0.23 µM | IC50 (A3): 5.37 µM | IC50 (human TREK-2 (hTREK-2)): 0.23 µM | IC50 (CYP 1A2): 23.6 µM | inhibition at 10 µM (Kv1.5): ≤ 50%

CC(=O)N1CC[C@@H](n2ncc(Cl)c2C(=O)Nc2ncc(C#Cc3ccc(F)cc3)cc2C)[C@H](F)C1 [Compound 11, 1-((3R,4R)-1-Acetyl-3-fluoropiperidin-4-yl)-4-chloro-N-(5-((4-fluorophenyl)ethynyl)-3-methylpyridin-2-yl)-1H-pyrazole-5-carboxamide]
IC50 (rat TREK-1): 0.29 µM | BHB mouse [1]: 99.5% | BHB rat [2]: 99.4% | Minimum effective dose (MED), MK-801 challenge NOR (MK-801 challenged rat): 0.3 mg/kg | reversal of the MK-801 deficit in NOR (MK-801 challenged rat): significantly reversed the MK-801 deficit | inhibition at 10 µM (Kir2.1): ≤ 50% | IC50 (mouse TREK-1): 0.44 µM | IC50 (A3): 19.8 µM | IC50 (human TREK-2 (hTREK-2)): 0.29 µM | IC50 (CYP 1A2): > 30 µM | inhibition at 10 µM (Kv1.5): ≤ 50%
